≈ marks a conversion by molar mass, not a printed value. Calls of active or inactive are those of the source. No cut-off for these calls is given here.
Legend:
Escherichia coli = assay: Antibacterial activity against Escherichia coli; type: functional
[1] = Inhibition of PP1
Candida albicans = assay: Antifungal activity against Candida albicans; type: functional
[2] = Inhibition of PP2A

Compound | MIC (Escherichia coli) | Activity [1] | MIC (Candida albicans) | Activity [2]
CC(C1=CNC(N)N1)c1ccc(O)c2[nH]cc(-c3cnc(-c4c[nH]c5cc(Br)ccc45)c(=O)[nH]3)c12 (configuration not stated) [DRAGMACIDIN D] | 16 µg/mL (≈ 30.1 µM) | Active | 20 µg/mL (≈ 37.6 µM) | 
C[C@@H]1c2ccc(O)c3[nH]cc(c23)-c2[nH]c(=O)c(-c3c[nH]c4cc(Br)ccc34)nc2[C@@]12CNC(N)=N2 [DRAGMACIDIN E] | 22 µg/mL (≈ 41.5 µM) | Active | 36 µg/mL (≈ 67.9 µM) | Active

Source: ChEMBL document CHEMBL1150888, “Dragmacidins: new protein phosphatase inhibitors from a southern australian deep-water marine sponge, spongosorites sp” (1998)
